# Results reported in publication PMC6979384, “Characterization of the plant homeodomain (PHD) reader family for their histone tail interactions” (Epigenetics & Chromatin, 2020).
# Key:
# Test in all cases: Histone peptide microarray
# Format in all cases: binding, human
# Settings in all cases: sheet "Array Heatmap"
# PHF2 = system: PHF2
# Source text: (§1) To more comprehensively define the histone interactions of the 31 PHD readers identified from the domain microarray analyses, we probed each on an alternate microarray platform containing a library of 293 synthetic histone peptides with single or combinatorial PTMs (Additional file 2: Figure S4 and Additional file 3: Table S2).
# (§2) The 31 GST-tagged PHD readers identified in the PHD finger domain array were expressed and purified as previously. Histone peptide arrays and peptide pulldown assays were conducted as recently described (specifically, the optimized protocol from Petell et al. for the former).
# (§3) Supplementary file 13072_2020_328_MOESM3_ESM.xlsx: Additional file 3: Table S2. […] Excel Tab Peptide List is a compiled list of the entire 293 histone peptide library with amino acid sequence ranges. […] Each number corresponds to the peptide number designated in Peptide List. Excel Tab Average Signals is a compiled set of binding data: chromatin reader at 0.5 μM vs. entire 293 peptide library. Data is presented as the average and standard deviation of 4 replicates. The average signals are colored to indicate signal intensity with green being strong and white being weak/low. […] Key: red= stronger relative binding; blue = weaker relative binding. Excel Tab Array info summary is a table summarizing the domains, sequence coverage, array signal range, and noise for each of the GST-tagged readers assayed on the peptide microarrays.
# DPF2 (PPC2W2) = system: DPF2 (PPC2W2)
# Source text: as §1, §2, §3
# ING5 = system: ING5
# Source text: as §1, §2, §3
# KDM5B (3) = system: KDM5B (3)
# Source text: as §1, §2, §3
# PHF13 = system: PHF13
# Source text: as §1, §2, §3
# PHF8 = system: PHF8
# Source text: as §1, §2, §3
# MORC3 (CW) = system: MORC3 (CW)
# Source text: as §1, §2, §3
# ING1 = system: ING1
# Source text: as §1, §2, §3
# TAF3 = system: TAF3
# Source text: as §1, §2, §3
# CHD5 (PPCC) = system: CHD5 (PPCC)
# Source text: as §1, §2, §3
# ING2 = system: ING2
# Source text: as §1, §2, §3
# KDM7A = system: KDM7A
# Source text: as §1, §2, §3
# SP140L = system: SP140L
# Source text: as §1, §2, §3
# RAG2 = system: RAG2
# Source text: as §1, §2, §3
# PHF21A = system: PHF21A
# Source text: as §1, §2, §3
# CHD5 (PCC) = system: CHD5 (PCC)
# Source text: as §1, §2, §3
# KDM4C (TTP) = system: KDM4C (TTP)
# Source text: as §1, §2, §3
# PHF23 = system: PHF23
# Source text: as §1, §2, §3
# DIDO1 = system: DIDO1
# Source text: as §1, §2, §3
# TRIM66 (PB) = system: TRIM66 (PB)
# Source text: as §1, §2, §3
# KDM5A (1) = system: KDM5A (1)
# Source text: as §1, §2, §3
# BPTF (PB) = system: BPTF (PB)
# Source text: as §1, §2, §3
# AIRE (PP) = system: AIRE (PP)
# Source text: as §1, §2, §3
# BAZ2B = system: BAZ2B
# Source text: as §1, §2, §3
# ING4 = system: ING4
# Source text: as §1, §2, §3
# MLL5 = system: MLL5
# Source text: as §1, §2, §3
# CHD4 (PPCC) = system: CHD4 (PPCC)
# Source text: as §1, §2, §3
# PHRF1 (RP) = system: PHRF1 (RP)
# Source text: as §1, §2, §3
# ING3 = system: ING3
# Source text: as §1, §2, §3
# KDM5A (3) = system: KDM5A (3)
# Source text: as §1, §2, §3
# KDM5B (1) = system: KDM5B (1)
# Source text: as §1, §2, §3
substance,measurement,setting,value
"H2A (1-17): H2A 1-17 (SGRGKQGGKARAKAKTR; UniProt P0C0S8 2-18, looked up, fragment)","Array Heatmap signal, PHF2","PHF2; GST-tagged PHF2, arrays performed twice, total replicate number n = 4",0.4566
same,"Array Heatmap signal, DPF2 (PPC2W2)","DPF2 (PPC2W2); GST-tagged DPF2 (PPC2W2), arrays performed twice, total replicate number n = 4",0.6154
same,"Array Heatmap signal, ING5","ING5; GST-tagged ING5, arrays performed twice, total replicate number n = 4",0.2875
same,"Array Heatmap signal, KDM5B (3)","KDM5B (3); GST-tagged KDM5B (3), arrays performed twice, total replicate number n = 4",0.4194
same,"Array Heatmap signal, PHF13","PHF13; GST-tagged PHF13, arrays performed twice, total replicate number n = 4",0.527
same,"Array Heatmap signal, PHF8","PHF8; GST-tagged PHF8, arrays performed twice, total replicate number n = 4",0.3118
same,"Array Heatmap signal, MORC3 (CW)","MORC3 (CW); GST-tagged MORC3 (CW), arrays performed twice, total replicate number n = 4",0.3444
same,"Array Heatmap signal, ING1","ING1; GST-tagged ING1, arrays performed twice, total replicate number n = 4",0.4879
same,"Array Heatmap signal, TAF3","TAF3; GST-tagged TAF3, arrays performed twice, total replicate number n = 4",0.223
same,"Array Heatmap signal, CHD5 (PPCC)","CHD5 (PPCC); GST-tagged CHD5 (PPCC), arrays performed twice, total replicate number n = 4",0.4702
same,"Array Heatmap signal, ING2","ING2; GST-tagged ING2, arrays performed twice, total replicate number n = 4",0.6045
same,"Array Heatmap signal, KDM7A","KDM7A; GST-tagged KDM7A, arrays performed twice, total replicate number n = 4",0.3435
same,"Array Heatmap signal, SP140L","SP140L; GST-tagged SP140L, arrays performed twice, total replicate number n = 4",0.3296
same,"Array Heatmap signal, RAG2","RAG2; GST-tagged RAG2, arrays performed twice, total replicate number n = 4",0.2183
same,"Array Heatmap signal, PHF21A","PHF21A; GST-tagged PHF21A, arrays performed twice, total replicate number n = 4",0.4214
same,"Array Heatmap signal, CHD5 (PCC)","CHD5 (PCC); GST-tagged CHD5 (PCC), arrays performed twice, total replicate number n = 4",0.7396
same,"Array Heatmap signal, KDM4C (TTP)","KDM4C (TTP); GST-tagged KDM4C (TTP), arrays performed twice, total replicate number n = 4",0.4226
same,"Array Heatmap signal, PHF23","PHF23; GST-tagged PHF23, arrays performed twice, total replicate number n = 4",0.4782
same,"Array Heatmap signal, DIDO1","DIDO1; GST-tagged DIDO1, arrays performed twice, total replicate number n = 4",0.6067
same,"Array Heatmap signal, TRIM66 (PB)","TRIM66 (PB); GST-tagged TRIM66 (PB), arrays performed twice, total replicate number n = 4",0.5087
same,"Array Heatmap signal, KDM5A (1)","KDM5A (1); GST-tagged KDM5A (1), arrays performed twice, total replicate number n = 4",0.4209
same,"Array Heatmap signal, BPTF (PB)","BPTF (PB); GST-tagged BPTF (PB), arrays performed twice, total replicate number n = 4",0.2947
same,"Array Heatmap signal, AIRE (PP)","AIRE (PP); GST-tagged AIRE (PP), arrays performed twice, total replicate number n = 4",0.3792
same,"Array Heatmap signal, BAZ2B","BAZ2B; GST-tagged BAZ2B, arrays performed twice, total replicate number n = 4",0.3936
same,"Array Heatmap signal, ING4","ING4; GST-tagged ING4, arrays performed twice, total replicate number n = 4",0.3938
same,"Array Heatmap signal, MLL5","MLL5; GST-tagged MLL5, arrays performed twice, total replicate number n = 4",0.5078
same,"Array Heatmap signal, CHD4 (PPCC)","CHD4 (PPCC); GST-tagged CHD4 (PPCC), arrays performed twice, total replicate number n = 4",0.5048
same,"Array Heatmap signal, PHRF1 (RP)","PHRF1 (RP); GST-tagged PHRF1 (RP), arrays performed twice, total replicate number n = 4",0.4275
same,"Array Heatmap signal, ING3","ING3; GST-tagged ING3, arrays performed twice, total replicate number n = 4",0.4033
same,"Array Heatmap signal, KDM5A (3)","KDM5A (3); GST-tagged KDM5A (3), arrays performed twice, total replicate number n = 4",0.3954
same,"Array Heatmap signal, KDM5B (1)","KDM5B (1); GST-tagged KDM5B (1), arrays performed twice, total replicate number n = 4",0.663
"H2A (10-25): H2A 10-25 (ARAKAKTRSSRAGLQF; UniProt P0C0S8 11-26, looked up, fragment)",Array Heatmap value (peptide array signal),"PHF2; PHF2, each array performed twice, total n = 4",0.4378
same,Array Heatmap value (peptide array signal),"DPF2 (PPC2W2); DPF2 (PPC2W2), each array performed twice, total n = 4",0.6893
same,Array Heatmap value (peptide array signal),"ING5; ING5, each array performed twice, total n = 4",0.3701
same,Array Heatmap value (peptide array signal),"KDM5B (3); KDM5B (3), each array performed twice, total n = 4",0.4449
same,Array Heatmap value (peptide array signal),"PHF13; PHF13, each array performed twice, total n = 4",0.6145
same,Array Heatmap value (peptide array signal),"PHF8; PHF8, each array performed twice, total n = 4",0.3624
same,Array Heatmap value (peptide array signal),"MORC3 (CW); MORC3 (CW), each array performed twice, total n = 4",0.3714
same,Array Heatmap value (peptide array signal),"ING1; ING1, each array performed twice, total n = 4",0.5431
same,Array Heatmap value (peptide array signal),"TAF3; TAF3, each array performed twice, total n = 4",0.2598
same,Array Heatmap value (peptide array signal),"CHD5 (PPCC); CHD5 (PPCC), each array performed twice, total n = 4",0.5571
same,Array Heatmap value (peptide array signal),"ING2; ING2, each array performed twice, total n = 4",0.647
same,Array Heatmap value (peptide array signal),"KDM7A; KDM7A, each array performed twice, total n = 4",0.3832
same,Array Heatmap value (peptide array signal),"SP140L; SP140L, each array performed twice, total n = 4",0.3704
same,Array Heatmap value (peptide array signal),"RAG2; RAG2, each array performed twice, total n = 4",0.2471
same,Array Heatmap value (peptide array signal),"PHF21A; PHF21A, each array performed twice, total n = 4",0.4834
same,Array Heatmap value (peptide array signal),"CHD5 (PCC); CHD5 (PCC), each array performed twice, total n = 4",0.8105
same,Array Heatmap value (peptide array signal),"KDM4C (TTP); KDM4C (TTP), each array performed twice, total n = 4",0.5121
same,Array Heatmap value (peptide array signal),"PHF23; PHF23, each array performed twice, total n = 4",0.5294
same,Array Heatmap value (peptide array signal),"DIDO1; DIDO1, each array performed twice, total n = 4",0.6569
same,Array Heatmap value (peptide array signal),"TRIM66 (PB); TRIM66 (PB), each array performed twice, total n = 4",0.5591
same,Array Heatmap value (peptide array signal),"KDM5A (1); KDM5A (1), each array performed twice, total n = 4",0.4831
same,Array Heatmap value (peptide array signal),"BPTF (PB); BPTF (PB), each array performed twice, total n = 4",0.3546
same,Array Heatmap value (peptide array signal),"AIRE (PP); AIRE (PP), each array performed twice, total n = 4",0.4997
same,Array Heatmap value (peptide array signal),"BAZ2B; BAZ2B, each array performed twice, total n = 4",0.4876
same,Array Heatmap value (peptide array signal),"ING4; ING4, each array performed twice, total n = 4",0.4661
same,Array Heatmap value (peptide array signal),"MLL5; MLL5, each array performed twice, total n = 4",0.5534
same,Array Heatmap value (peptide array signal),"CHD4 (PPCC); CHD4 (PPCC), each array performed twice, total n = 4",0.556
same,Array Heatmap value (peptide array signal),"PHRF1 (RP); PHRF1 (RP), each array performed twice, total n = 4",0.4431
same,Array Heatmap value (peptide array signal),"ING3; ING3, each array performed twice, total n = 4",0.4796
same,Array Heatmap value (peptide array signal),"KDM5A (3); KDM5A (3), each array performed twice, total n = 4",0.4414
same,Array Heatmap value (peptide array signal),"KDM5B (1); KDM5B (1), each array performed twice, total n = 4",0.668
